Measured values published in publication PMC6268586, “Effect of Wine and Vinegar Processing of Rhizoma Corydalis on the Tissue Distribution of Tetrahydropalmatine, Protopine and Dehydrocorydaline in Rats” (Molecules, 2012).
Read-outs that look alike come from different tables or passages of the source.

Assay: Tissue distribution of THP, DHC and protopine in rat tissues after gastric gavage administration (HPLC-UV, non-compartmental analysis)
Format: in vivo, Wistar male rats
Conditions: male, Wistar, po, 4.52 mg/kg; for AUC(0-t): read-out: AUC0–24 h of protopine; for Cmax: read-out: Cmax of protopine; for MRT: read-out: MRT of protopine; for Tmax: read-out: Tmax of protopine
Experimental: The experimental protocol was approved by the University's Animal Ethics Committee. […] Rats had unlimited access to water. Standard food was given until 12 h before the experiments. Rhizoma Corydalis was processed according to Pharmacopoeia of Chinese Medicine and National Guideline of Traditional Chinese Medicinal Plants Processing. Briefly, fresh Rhizoma Corydalis was boiled in water till the pith turn light brown color. Cooked rhizome was sliced into pieces (4 mm, diameter) and dried at 25 °C. Dried slices were mixed with edible vinegar (100:20, rhizome/vinegar, w/v) or yellow wine (100:10, rhizome/wine, w/v) and the slices allowed to completely absorb the vinegar or wine. The soaked slices were then stir-fried in a metallic pan over a low flame till they were completely dry. The processed Rhizoma Corydalis was added with 70% ethanol (1:30 w/v) and sonicated for 1 h at room temperature. The extract was then concentrated to remove the ethanol residue and stored at 4 °C for further use. […] The ethanol extract of the unprocessed Rhizoma Corydalis and THP, DHC and protopine pure compound were used as the controls. Three hundred and sixty healthy rats were used in total and are divided into six groups (Group 1-6, sixty rats per group). Drugs were administrated by gastric gavage method. In order to keep the dose of THP, DHC and protopine constant in each group, the amount of ethanol extract of Rhizoma Corydalis administrated was normalized based on the dose of protopine pure compound used. The dose of THP and DHC pure compound administrated was same with that in the ethanol extract of Rhizoma Corydalis. The details were listed below. […] Rats were administrated with the 70% ethanol extract of unprocessed Rhizoma Corydalis at a dose of 17.75 g extract/kg body weight. […] Rats received the extract of vinegar-processed Rhizoma Corydalis at a dose of 15 g extract/kg rat body weight. Group 3: Rats were administrated with the extract of wine processed Rhizoma Corydalis at a dose of 15.78 g extract/kg body weight. […] Rats received THP pure compound at a dose of 6.45 mg/kg body weight. Group 6: Rats were administrated 26.10 mg of DHC pure compound/kg body weight. […] Brian tissue was further dissected into six parts: cerebrum, cerebellum, diencephalons, brain stem, hippocampus and striatum. All the tissue samples were rinsed with ice-old saline and stored at -20 °C until extraction. Tissue samples were homogenized in three volumes of ice-cold biological saline and centrifuged for 10 min at 10,000 g and 4 °C. An aliquot of the supernatant (0.5 mL) was collected. Liquid-liquid extraction was used to extract THP, DHC and protopine. One hundred microliter of 1.0 μg/mL nuciferin (internal standard) was mixed with 0.5 mL aliquots of the supernatant. […] The supernatant was evaporated completely under the nitrogen stream in a 60 °C water bath. The residue was redissolved in 100 μL of methanol. A CoMetro HPLC system (CoMetro Technology Ltd, South […], NJ, USA) with 6000 PVW detector UV-VIS detector was used. […] Ltd., Liaoning, China). Other chromatographic conditions were: column temperature, 35 °C; mobile phase, acetonitrile-0.1% phosphoric acid (pH 3.0) (30:70 v/v); flow rate, 1 mL/min; wavelength, 280 nm. Pharmacokinetic parameters were estimated by non-compartmental analysis using Equiv Test/PK (Statistical Solutions Ltd., Saugus, MA, USA). The maximum concentration (Cmax) and the time to reach the maximum concentration (Tmax) were directly obtained from the observed value. All data were represented as mean ± SD. Comparison of values between groups was performed using one-way ANOVA followed by Tukey's test for comparisons among four groups.

[1] = diencephalon, rat diencephalons

**Q.** With `CN1CCc2cc3c(cc2C(=O)Cc2ccc4c(c2C1)OCO4)OCO3` [protopine] as the compound, how does the AUC(0-t) [1] read?
**A.** 3180 ± 70 ng·h/mL

**Q.** What about the Cmax [1] of the same compound?
**A.** 1310 ± 270 ng/mL

**Q.** What about the MRT [1] of the same compound?
**A.** 4.89 ± 0.01 h

**Q.** And the Tmax [1]?
**A.** 2.07 ± 0.21 h

**Q.** What about the AUC(0-t) (rat brain stem) of the same compound?
**A.** 2020 ± 420 ng·h/mL

**Q.** And the Cmax (rat brain stem)?
**A.** 820 ± 170 ng/mL

**Q.** What about the MRT (rat brain stem) of the same compound?
**A.** 3.9 ± 0.14 h

**Q.** And the Tmax (rat brain stem)?
**A.** 2.2 ± 0.01 h

**Q.** What about the AUC(0-t) (rat cerebellum) of the same compound?
**A.** 3800 ± 830 ng·h/mL

**Q.** And the Cmax (rat cerebellum)?
**A.** 1560 ± 320 ng/mL

**Q.** And the MRT (rat cerebellum)?
**A.** 4.86 ± 0.08 h

**Q.** And the Tmax (rat cerebellum)?
**A.** 2.08 ± 0.01 h

**Q.** What about the AUC(0-t) (rat cerebrum) of the same compound?
**A.** 3650 ± 780 ng·h/mL

**Q.** And the Cmax (rat cerebrum)?
**A.** 1350 ± 270 ng/mL

**Q.** What about the MRT (rat cerebrum) of the same compound?
**A.** 3.93 ± 0.06 h

**Q.** What about the Tmax (rat cerebrum) of the same compound?
**A.** 2.1 ± 0.8 h

**Q.** And the AUC(0-t) (rat heart)?
**A.** 6230 ± 1560 ng·h/mL

**Q.** And the Cmax (rat heart)?
**A.** 1500 ± 450 ng/mL

**Q.** And the MRT (rat heart)?
**A.** 5.93 ± 0.02 h

**Q.** What about the Tmax (rat heart) of the same compound?
**A.** 5.28 ± 0.42 h

**Q.** What about the AUC(0-t) (rat hippocampus) of the same compound?
**A.** 3660 ± 810 ng·h/mL

**Q.** What about the Cmax (rat hippocampus) of the same compound?
**A.** 1560 ± 310 ng/mL

**Q.** And the MRT (rat hippocampus)?
**A.** 5.23 ± 0.1 h

**Q.** What about the Tmax (rat hippocampus) of the same compound?
**A.** 2.09 ± 0.04 h

**Q.** What about the AUC(0-t) (rat kidney) of the same compound?
**A.** 13400 ± 2650 ng·h/mL

**Q.** And the Cmax (rat kidney)?
**A.** 4420 ± 1310 ng/mL

**Q.** And the MRT (rat kidney)?
**A.** 5.53 ± 0.04 h

**Q.** What about the Tmax (rat kidney) of the same compound?
**A.** 5.13 ± 0.04 h

**Q.** And the AUC(0-t) (rat liver)?
**A.** 27800 ± 6980 ng·h/mL

**Q.** And the Cmax (rat liver)?
**A.** 6670 ± 1970 ng/mL

**Q.** What about the MRT (rat liver) of the same compound?
**A.** 5.69 ± 0.03 h

**Q.** And the Tmax (rat liver)?
**A.** 5.09 ± 0.68 h

**Q.** What about the AUC(0-t) (rat lung) of the same compound?
**A.** 50200 ± 12500 ng·h/mL

**Q.** And the Cmax (rat lung)?
**A.** 11200 ± 3310 ng/mL

**Q.** And the MRT (rat lung)?
**A.** 5.85 ± 0.04 h

**Q.** What about the Tmax (rat lung) of the same compound?
**A.** 5.22 ± 0.47 h

**Q.** What about the AUC(0-t) (rat spleen) of the same compound?
**A.** 35000 ± 8180 ng·h/mL

**Q.** And the Cmax (rat spleen)?
**A.** 7420 ± 2220 ng/mL

**Q.** And the MRT (rat spleen)?
**A.** 5.65 ± 0.03 h

**Q.** And the Tmax (rat spleen)?
**A.** 5.22 ± 0.05 h

**Q.** And the AUC(0-t) (rat striatum)?
**A.** 6420 ± 1520 ng·h/mL

**Q.** What about the Cmax (rat striatum) of the same compound?
**A.** 1950 ± 400 ng/mL

**Q.** And the MRT (rat striatum)?
**A.** 6.57 ± 0.43 h

**Q.** What about the Tmax (rat striatum) of the same compound?
**A.** 2.07 ± 0.08 h
